# How the values were obtained:
# Type in all cases: biochemical
# Papain = biological target: T1, Papain (Carica papaya, UniProt P00784); assay: Papain inhibition (casein digestion, SDS-PAGE)
# T1 construct: purchased Sigma P4762
# T1 sequence (P00784 134-345): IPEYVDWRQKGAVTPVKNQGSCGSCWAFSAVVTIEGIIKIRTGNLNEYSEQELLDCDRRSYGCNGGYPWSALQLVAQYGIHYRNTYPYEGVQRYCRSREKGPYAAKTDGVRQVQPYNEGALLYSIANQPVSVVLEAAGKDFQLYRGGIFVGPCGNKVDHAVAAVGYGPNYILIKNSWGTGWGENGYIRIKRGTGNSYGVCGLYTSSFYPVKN
# Description: Papain (Sigma ref. P4762) and casein (Merck ref. VM874644) were dissolved in 40 mM TrisHCl buffers pH6.8 and pH9.5 respectively. Casein at the concentration of 0.5 μg/μl was incubated with the inhibitory compounds at efficient inhibitory concentration or with DMSO for 15 min and then digested by Papain (2.5 ng/μl) at RT over 45 min. The digestion samples were collected at time: 5, 15, 30 and 45 min. To inactivate the protease Laemmli 2× was added and each sample was heated at 95° C. for 5 min then analyzed with SDS-PAGE and stained with Coomassie Blue.
# [1] = biological target: T2, catalytic domain of USP2 (USP2CD) (Homo sapiens, UniProt O75604); assay: USP2 CD inhibition (Ub-Rho); settings: USP2CD 16 nM
# T2 construct: The purified catalytic domain of USP2 (USP2CD, in-house purified) was used; made in house
# T2 sequence (O75604 267-599 limits assumed): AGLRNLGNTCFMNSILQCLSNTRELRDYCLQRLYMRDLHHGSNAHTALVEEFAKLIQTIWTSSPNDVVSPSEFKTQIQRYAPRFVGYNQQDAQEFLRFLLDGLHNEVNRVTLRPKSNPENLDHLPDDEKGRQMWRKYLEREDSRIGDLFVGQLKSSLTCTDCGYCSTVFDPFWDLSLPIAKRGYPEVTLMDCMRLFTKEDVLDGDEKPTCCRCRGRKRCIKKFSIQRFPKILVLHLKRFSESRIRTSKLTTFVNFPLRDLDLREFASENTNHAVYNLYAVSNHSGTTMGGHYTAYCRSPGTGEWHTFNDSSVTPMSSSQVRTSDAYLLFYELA
# Description: The purified catalytic domain of USP2 (USP2CD, in-house purified) was used at a concentration of 16 nM in the presence of the artificial substrate Ub-Rho. Inhibition assays were performed as described above.
# USP8CD = biological target: T3, USP8CD (Homo sapiens, UniProt P40818); assay: Reversibility (dilution / gel filtration) assay of USP8 inhibition; settings: USP8CD 60 nM, activity before and after gel column filtration
# T3 construct: an in-house purified catalytic domain of USP8 (USP8CD) was used at a concentration of 80 nM; made in house
# T3 sequence (P40818 777-1109 limits assumed): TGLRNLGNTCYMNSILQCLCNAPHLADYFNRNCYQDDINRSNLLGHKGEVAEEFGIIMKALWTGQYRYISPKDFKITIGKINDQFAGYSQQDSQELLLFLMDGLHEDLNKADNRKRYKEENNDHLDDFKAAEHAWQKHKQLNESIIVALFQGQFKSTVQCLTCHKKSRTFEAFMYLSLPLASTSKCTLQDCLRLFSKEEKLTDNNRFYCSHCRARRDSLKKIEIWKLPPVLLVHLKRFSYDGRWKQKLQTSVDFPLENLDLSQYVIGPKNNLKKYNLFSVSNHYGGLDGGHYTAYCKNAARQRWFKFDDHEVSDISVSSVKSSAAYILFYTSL
# Description: DUB activity relies on a conserved catalytic cysteine residue which is particularly sensitive to irreversible oxidation by reactive oxygen species (ROS) (Lee et al., 2013). […] In this setup, purified USP8CD was used at a concentration of 60 nM and incubated for 20 min with either the inhibitory compound or with DMSO in buffered conditions. The catalytic activity of each mix was monitored on Ub-Rho substrate (Ubiquigent ref. 60-0117-050) used at a final concentration of 0.1 μM before and after filtration on a gel column (Millipore UFC30GV25). If a catalytic activity is detected after column filtration, the compound is a reversible inhibitor.
# UCH-L3 = biological target: T4, UCH-L3 (Homo sapiens, UniProt P15374); assay: UCH-L3 inhibition assay (Ub-Rhodamine); settings: UCH-L3 3 nM
# T4 construct: or the more distant UCH-L3 enzyme (Full length); purchased BostonBiochem E-325
# T4 sequence (P15374 1-230): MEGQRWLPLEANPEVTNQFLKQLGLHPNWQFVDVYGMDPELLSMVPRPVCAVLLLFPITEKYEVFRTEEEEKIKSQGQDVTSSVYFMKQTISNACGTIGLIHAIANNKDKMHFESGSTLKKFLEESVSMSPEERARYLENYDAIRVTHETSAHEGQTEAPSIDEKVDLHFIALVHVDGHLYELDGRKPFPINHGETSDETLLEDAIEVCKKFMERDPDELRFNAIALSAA
# Description: UCH-L3 (BostonBiochem ref. E-325) was used at a concentration of 3 nM in the presence of the Ub-Rhodamine. Enzymatic inhibition was monitored as for USP8 or USP2 CD.
structure (smiles),measurement,setting,value
"Cc1cc(C(C#N)c2ccc(Cl)cc2)c(Cl)cc1NC(=O)c1cc(I)cc(I)c1O (stereo not shown) [Closantel, reference compound]",activity against papain,Papain,not active
same,activity against USP2CD,[1],active
same,reversibility of USP8 inhibition,USP8CD,reversible
same,activity against UCH-L3,UCH-L3,not active

# Source: patent US20260207535A1, “CRIBLAGE INHIBITEURS USP8” (COMMISSARIAT A L'ENERGIE ATOMIQUE ET AUX ENERGIES …, priority 2022, published 2026)
